This is an account of results in ChEMBL document CHEMBL1148173, “Three New Onnamide Congeners from the Okinawan Marine Sponge Theonella Sp” (J Nat Prod, 1993).

SMILES strings stand for the structures. Values after ≈ are worked out from the molar mass of the structure shown.

In one test the test system is L1210. Nature of the test: Cytotoxicity against mouse L1210 cells. The class given is functional, cell-based.
The next test concerns KB. Nature of the test: Cytotoxicity against human KB cells. The class given is functional, cell-based.

For the compound `C=C1C[C@](OC)([C@H](O)C(=O)N[C@H]2OCO[C@H]3[C@@H]2O[C@H](C[C@H](O)CCC/C=C/C=C/C=C/C(=O)N[C@@H](CCCNC(=N)N)C(=O)O)C(C)(C)[C@@H]3OC)O[C@H](C)[C@@H]1C` [ONNAMIDE A], the figures for the IC50 with L1210 and in the test on KB were 2 ng/mL (≈ 2.52 nM) and 3.6 ng/mL (≈ 4.53 nM), respectively.

As for `C=C1C[C@](OC)([C@H](O)C(=O)N[C@H]2OCO[C@H]3[C@@H]2O[C@H](CC(=O)CCCCC/C=C/C=C/C(=O)N[C@@H](CCCNC(=N)N)C(=O)O)C(C)(C)[C@@H]3OC)O[C@H](C)[C@@H]1C` [6,7-DIHYDRO-11-OXO-ONNAMIDE A], the IC50 (as a rule, the concentration that inhibits the measured activity by half) is 16 ng/mL (≈ 20.2 nM) in the test on L1210 and 23 ng/mL (≈ 29 nM) in the test with KB.

As to `C=C1C[C@](OC)([C@H](O)C(=O)N[C@H]2OCO[C@H]3[C@@H]2O[C@H](CC(=O)CCC/C=C/C=C/C=C/C(=O)N[C@@H](CCCNC(=N)N)C(=O)O)C(C)(C)[C@@H]3OC)O[C@H](C)[C@@H]1C` [11-OXO-ONNAMIDE A], the values for the IC50 in the test on L1210 and with KB were 9.2 ng/mL (≈ 11.6 nM) and 13 ng/mL (≈ 16.4 nM), respectively.

Take `C=C1C[C@](OC)([C@H](O)C(=O)N[C@H]2OCO[C@H]3[C@@H]2O[C@H](C[C@H](O)CCCCC/C=C/C=C/C(=O)N[C@@H](CCCNC(=N)N)C(=O)O)C(C)(C)[C@@H]3OC)O[C@H](C)[C@@H]1C` [6,7-DIHYDRO-ONNAMIDE A]: the IC50 with L1210 was 4.6 ng/mL (≈ 5.78 nM); in the test on KB it was 5 ng/mL (≈ 6.28 nM).

Regarding `C=C1C[C@](OC)([C@H](O)C(=O)N[C@H]2OCO[C@H]3[C@@H]2O[C@H](C[C@H](O)CCC/C=C/C=C\C=C\C(=O)N[C@@H](CCCNC(=N)N)C(=O)O)C(C)(C)[C@@H]3OC)O[C@H](C)[C@@H]1C` [4Z-ONNAMIDE A], the IC50 was determined as 1.5 ng/mL (≈ 1.89 nM) in the test on L1210 and 2.9 ng/mL (≈ 3.65 nM) in the test with KB.
